Molecules are shown by their SMILES. Numbered stars: 1 amine (or outer) side, 2 acyl side, 3 side chain; on linkers, the order of the positions; unused ones are H or OH. Square brackets hold non-standard residues; d marks the D form. Side chains are listed from the residue outwards. Peptide text beside a SMILES is read from it. * marks the point of attachment. C18 diacid = O=C(O)CCCCCCCCCCCCCCCCC(=O)*; γGlu = O=C(O)[C@H](CCC(=O)[*:2])N[*:1]; AEEA = NCCOCCOCC(=O)O; Aib = CC(C)(N)C(=O)O

From US9474790B2, “Stable, protracted GLP-1/glucagon receptor co-agonists for medical use” (Novo Nordisk A/S, priority 2013, dated 2016) come the findings set out here.

The series in a line: Thioflavin T (ThT) fibrillation assay for physical stability. Format: physicochemical. The settings on record: 250 μM in 10 mM HEPES buffer, pH 7.5, 37° C., shaking 960 rpm. Summed up: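 Fibrillation was followed by ThT (1 μM) fluorescence every 20 min, 444/485 nm, for 250 μM peptide in 10 mM HEPES pH 7.5 shaken at 960 rpm, 37° C. Lag time (t0−2τ) and apparent rate constant (1/τ) come from a sigmoidal fit. Recovery is % of initial concentration remaining soluble after centrifugation and filtration (RP-HPLC).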

Regarding `CC(C)C[C@H](NC(=O)[C@H](Cc1c[nH]c2ccccc12)NC(=O)[C@H](C)NC(=O)[C@@H](NC(=O)[C@H](Cc1ccccc1)NC(=O)[C@H](CCC(=O)O)NC(=O)[C@H](CCCNC(=N)N)NC(=O)[C@H](C)NC(=O)[C@H](CCCNC(=N)N)NC(=O)[C@H](CCCNC(=N)N)NC(=O)[C@H](CCCCNC(=O)CC[C@H](NC(=O)COCCOCCNC(=O)COCCOCCNC(=O)CC[C@H](NC(=O)CC[C@H](NC(=O)CCCCCCCCCCCCCCCCC(=O)O)C(=O)O)C(=O)O)C(=O)O)NC(=O)[C@H](CC(=O)O)NC(=O)[C@H](CC(C)C)NC(=O)[C@H](Cc1ccc(O)cc1)NC(=O)[C@H](CCCCN)NC(=O)[C@H](CO)NC(=O)[C@H](CC(C)C)NC(=O)[C@H](CC(=O)O)NC(=O)[C@H](CO)NC(=O)[C@@H](NC(=O)[C@H](Cc1ccccc1)NC(=O)[C@@H](NC(=O)CNC(=O)[C@H](CCC(N)=O)NC(=O)C(C)(C)NC(=O)[C@@H](N)Cc1c[nH]cn1)[C@@H](C)O)[C@@H](C)O)C(C)C)C(=O)N[C@@H](CC(C)C)C(=O)N[C@@H](CC(N)=O)C(=O)N[C@H](C(N)=O)[C@@H](C)O` [Example 19, N^ε29-[(4S)-4-carboxy-4-[[2-[2-[2-[[2-[2-[2-[[(4S)-4-carboxy-4-[[(4S)-4-carboxy-4-(17-carboxyheptadecanoylamino)butanoyl]amino]butanoyl]amino]ethoxy]ethoxy]acetyl]amino]ethoxy]ethoxy]acetyl]amino]butanoyl]-[Aib2,Leu10,Lys16,Arg20,Glu21,Ala24,Leu27]-Glucagon amide] (H-H[Aib]QGTFTSDLSKYLDK([γGlu-AEEA-AEEA-γGlu-γGlu-C18 diacid])RRAREFVAWLLNT-NH2; N-terminus assumed), the THT assay Lag time (Ex. 76) turned out to be 6.7 h.

Turning to `CC(C)C[C@H](NC(=O)[C@H](Cc1ccc(O)cc1)NC(=O)[C@H](CCCCN)NC(=O)[C@H](CO)NC(=O)[C@H](CC(C)C)NC(=O)[C@H](CC(=O)O)NC(=O)[C@H](CO)NC(=O)[C@@H](NC(=O)[C@H](Cc1ccccc1)NC(=O)[C@@H](NC(=O)CNC(=O)[C@H](CCC(N)=O)NC(=O)C(C)(C)NC(=O)[C@@H](N)Cc1c[nH]cn1)[C@@H](C)O)[C@@H](C)O)C(=O)N[C@@H](CCC(=O)O)C(=O)N[C@@H](CO)C(=O)N[C@@H](CCCNC(=N)N)C(=O)N[C@@H](CCCNC(=N)N)C(=O)N[C@@H](C)C(=O)N[C@@H](CCCNC(=N)N)C(=O)N[C@@H](CCC(=O)O)C(=O)N[C@@H](Cc1ccccc1)C(=O)N[C@H](C(=O)N[C@@H](CCC(N)=O)C(=O)N[C@@H](Cc1c[nH]c2ccccc12)C(=O)N[C@@H](CC(C)C)C(=O)N[C@@H](CC(C)C)C(=O)N[C@@H](CCCCNC(=O)CC[C@H](NC(=O)COCCOCCNC(=O)COCCOCCNC(=O)CC[C@H](NC(=O)CC[C@H](NC(=O)CCCCCCCCCCCCCCCCC(=O)O)C(=O)O)C(=O)O)C(=O)O)C(=O)N[C@H](C(N)=O)[C@@H](C)O)C(C)C` [Example 20, N^ε29-[(4S)-4-carboxy-4-[[2-[2-[2-[[2-[2-[2-[[(4S)-4-carboxy-4-[[(4S)-4-carboxy-4-(17-carboxyheptadecanoylamino)butanoyl]amino]butanoyl]amino]ethoxy]ethoxy]acetyl]amino]ethoxy]ethoxy]acetyl]amino]butanoyl]-[Aib2,Leu10,Glu15,Arg20,Glu21,Leu27,Lys28]-Glucagon amide] (H-H[Aib]QGTFTSDLSKYLESRRAREFVQWLLK([γGlu-AEEA-AEEA-γGlu-γGlu-C18 diacid])T-NH2; N-terminus assumed), the THT assay Lag time (Ex. 76) was 6 h.
